A melting point compilation (Tetko et al.; mined from patent text by program, amines drawn as free bases though some values may be those of a salt)

| Compound | melting point [°C] |
| --- | --- |
| CN(CCN1CCOCC1)c1noc2cc(O)ccc12 | 91 to 92 |
| CNC(=S)c1c(C(F)(F)F)nc(C(F)F)c(C(=O)OC)c1NC(C)C | 129 to 131 |
| Nc1cccc(CC2COc3ccc(OCc4ccc5ccc(Cl)cc5n4)cc3C2)c1 (single isomer, unassigned; (+)) | 128 to 130 |
| CCNC(=O)Nc1ccc(-c2nc3n(Cc4c(F)cccc4F)cc(C(=O)OC(C)C)c(=O)n3c2CN(C)Cc2ccccc2)cc1 | 198 to 200 |
| Cc1ccc(S(=O)(=O)NC2(S(=O)(=O)n3ccc(/C=C/C(=O)NO)c3)C=CC(c3ccccc3)=CC2)cc1 (stereo not given) | 119 to 126 |
| CN(c1ncnc2c1ncn2C1OC(CO)C(O)C1O)n1cccc1 (stereo not given) | 195 to 197 |
| Nc1nc(=O)n(CCCCI)cc1F | 181 to 184 |
| CCC(CC)c1ccc(Cl)c2nc3n(c12)CCN3C(=O)c1ccc(Cl)nc1 | 205 to 207 |
| C[C@@H]1N[C@@H](c2ccc(C#N)cc2)[C@H]2C(=O)N(Cc3ccccc3)C(=O)[C@H]21 (racemic) | 169 to 170 |
| CN(C)c1ccc(/C=C/c2c(F)cccc2Cl)cc1 | 42 to 44 |
| COC(=O)CN1CCC(OC)(c2cccc(OCc3ccc4ccccc4c3)c2)C1 (stereo not given) | 78 to 80 |
| O=C1c2ccccc2C(=O)N1OCc1cc[nH]n1 | 166 to 168 |
| CCOC(=O)C(C)(NC(=O)Cc1ccc(O)c2ncccc12)C(=O)OCC | 153 to 154 |
| Cc1c(C)c(NCc2ccccc2)c2c(c1C)C(=O)C(C)(C)O2 | 108 to 109 |
| CCOC(C)(C)C(=O)O[C@H]1C[C@H](O)C=C2C=C[C@H](C)[C@H](CC[C@@H]3C[C@@H](O)CC(=O)O3)[C@H]21 | 132 |
| Cc1cnc2[nH]cc(/C=C3\N=C(NCC(C)C)NC3=O)c2c1 | 338 to 339 |
| CSc1nccc(C(=O)C(=O)c2ccc(F)cc2)n1 | 74 to 76 |
| N[C@H]1CCN(c2ccc3c(NC(=O)CCc4ccccc4Cl)c(Cl)ccc3n2)C1 | 200 to 212 |
| CC(=O)OC1CCC2(C)C(=CCC3C2CCC2(C)C3CC(OC(C)=O)C2OC(C)=O)C1 (stereo not given) | 127 to 129 |
| CC(C)(C)OC(=O)NCc1cc(N=C(N)c2cccs2)ccc1N1CCN(C(=O)CCCCC2CCSS2)CC1 (stereo not given) | 162 to 164 |
| Cc1nc2c(c(=O)[nH]1)-c1ccc(Cl)cc1C(c1ccccc1)=NC2 | 245 to 248 |
| CCc1ccccc1C=CC=C1SC(=S)N(CC(=O)O)C1=O | 161 to 183 |
| C=CCc1cc(C(=O)c2ccnn2C)c(Cl)c(Cl)c1OCC(=O)O | 111 to 113 |
| O=C(CC(=O)C(F)(F)F)c1ccc(-c2ccco2)cc1 | 157 |

| Compound | melting point [°C] |
| --- | --- |
| O=C1CCC(N2Cc3c(OCc4cccc(CN5CCC(c6ccc(Cl)cc6)CC5)c4)cccc3C2=O)C(=O)N1 (stereo not given) | 180 to 182 |
| O=C(CBr)Nc1c(Cl)cccc1C(=O)O | 173 to 175 |
| CCNC(=O)Oc1cc2c(cc1Cl)CCN(C)C[C@H]2c1ccccc1 | 133 to 134 |
| CCCn1nc2c(N)nc3ccccc3c2c1CC(C)(C)N | 193 to 195 |
| CCCCC(=O)OCC(=O)C12OCOC1CC1C3CCC4=CC(=O)C=CC4(C)C3C(O)CC12C (stereo not given) | 121 to 122 |
| C=C(C)CC(O)C(Br)(Br)Br (stereo not given) | 64 to 65 |
| Cc1cc(C(F)(F)F)nn1CC(=O)N1CCC(c2nc(C3=NOC(c4cccc(-n5cncn5)c4)C3)cs2)CC1 (stereo not given) | 83 to 85 |
| CCCOc1c(OC)cc([N+](=O)[O-])c2ncccc12 | 100 to 104 |
| C=C(C)Cc1c(C)c(NC=O)c(C)c(C)c1O | 163 to 164 |
| Cc1cccc(Cl)c1NC(=S)Nc1c(C)nn(C)c1C | 201 to 202 |
| COCc1ccn2nc(S(=O)(=O)Nc3c(C)cccc3Cl)nc2n1 | 196 |
| NC1=C([N+](=O)[O-])C(=O)NC1=Cc1ccccc1 | > 260 |
| CCc1c2c(c(CC)c3ccc(OC)cc13)-c1ccc(OC)cc1C2 | 155 to 157 |
| O=C(Nc1ccc2cc(CN3CCC(CO)CC3)cnc2c1)c1ccc(-c2ccc(F)cc2)cc1 | 191 to 195 |
| COc1ccc(O)c(Cl)c1O | 69 to 70 |
| COc1ccc(C=CC(=O)c2cccc(OCCCCBr)c2)cc1 | 91 to 92 |
| CN1C(=O)C(c2ccccc2)=C(c2cn(C)c3ccccc23)C1=O | 242 to 246 |
| c1ccc(-c2nnc3cc(-c4ccsc4)c(OCc4ncn[nH]4)nn23)cc1 | 264 to 266 |
| Nc1c(Br)cc(F)cc1[N+](=O)[O-] | 71.5 to 72.5 |
| COc1ccc(S(=O)(=O)c2cnc(C)nc2Cc2c(C)cc(C)cc2C)cc1 | 150 to 152 |
| CN(C)c1ccc(OCC(=O)N[C@@H](CC(N)=O)C(=O)N[C@@H](Cc2ccccc2)[C@H](O)C(=O)N2CCC[C@H]2C(=O)NC(C)(C)C)cc1 | 102 to 104 |
| Nc1ncnc2c1ncn2C=CC=O | 258 to 260 |
| Cc1ccccc1NC(=O)Nc1ccc(C(=O)N2CCCCc3ccccc32)cc1 | 182 |
| N#Cc1ccc2c(c1)COC2c1ccc(F)cc1 (stereo not given) | 96 to 98 |

| Compound | melting point [°C] |
| --- | --- |
| O=C1CCC(N2Cc3c(OCc4ccc(CN5CC6CCC(C5)O6)cc4)cccc3C2=O)C(=O)N1 (stereo not given) | 228 to 230 |
| CC(=O)NCC1CC1c1ccc(F)c2nn(C)cc12 (stereo not given) | 147 to 148 |
| CCCCCCCCCCCCCCCc1[nH]c2ccc(C(=S)OCC)cc2c1C | 55 to 60 |
| C[C@@H](NC(=O)[C@@H](NC(=O)OCc1ccccc1)C(Cc1ccccc1)C(=O)O)C(=O)O (stereo not given in full) | 158 to 159 |
| CC1CC2CC(C)(CN2)C1(C)C(=O)C=CCO (stereo not given) | 72 to 75 |
| Cc1nnc(-c2ccc3occ(-c4ccc(SCc5ccccc5C#N)cc4)c3c2)o1 | 141 to 142 |
| COC(=O)C1=C(C)NC(=O)NC1c1cccc(N)c1 (stereo not given) | 222 to 234 |
| O=C(NS(=O)(=O)c1ccccc1-c1ccc(Cn2c(CCCC(F)(F)F)nn(-c3ccccc3C(F)(F)F)c2=O)cc1)c1ccccc1 | 197 to 199 |
| CCCCCCCCOC(=O)C(N)C=CCP(=O)(O)O (stereo not given) | 161 to 162 |
| CN(c1cnc(-c2ccccc2)c(-c2ccccc2)n1)C1CCc2c(OCC(=O)O)cccc21 (stereo not given) | 182 to 184 |
| CCC1(O)C(=O)OCc2c1cc1n(c2=O)Cc2cc3cc(O)ccc3nc2-1 (stereo not given) | 230 to 235 |
| CC(C)c1ccc(S(=O)(=O)Nc2ccc(N3CCC(NCC(O)COc4ccc(O)cc4)CC3)nc2)cc1 (stereo not given) | 75 to 78 |
| O=C(CCc1ccccc1)Nc1c(O)cc(-c2ccccc2)oc1=O | 191 to 193 |
| CC(=O)NC1CCC2=C(CC1)C(=O)CC=C2 (stereo not given) | 115 to 116 |
| CC(C)Cn1c(=O)n(C)c(=O)c2c(N)ncnc21 | 192 to 193 |
| COC(=O)c1cccc2nc(SCCCCCC(=O)Nc3c(SC)cc(C)nc3SC)oc12 | 141 to 142 |
| S=C(NCCCCN(Cc1ccc(Br)cc1)c1ccccn1)NCCCn1ccnc1 | 122 to 124 |
| OCCCCCCCCCCCCCCCCNCCO | 80 to 81.2 |
| CCCCCCNc1ccccc1CC(=O)Nc1c(C(C)C)cccc1C(C)C | 110 to 112 |
| CCCCCCCCN(O)C(=O)N(C)C | 29 to 30 |
| O=C(O)c1ccc2c(c1)S(=O)(=O)c1ccccc1S2 | 297 to 304 |
| Cc1cc(Cl)cc(C(=O)NCC2CCO2)c1NC(=O)c1cc(Br)nn1-c1ncccc1Cl (stereo not given) | 95 to 97 |
